In patent publication EP1135374B9, “BENZIMIDAZOLE COMPOUNDS THAT ARE VITRONECTIN RECEPTOR ANTAGONISTS” (SCHERING CORPORATION, priority 1998, dated 2000):

Columns and labels:
[1] = molecular target: T1, αvβ3 receptor (purified from human placenta) (Homo sapiens, UniProt P05106+P06756); assay: competition radioligand binding assay, 125I-echistatin to αvβ3 receptor; conditions: αvβ3, inhibition of specific 125I-echistatin binding
T1 construct: αvβ3 receptor (purified from human placenta); from tissue; host or cells: human placenta
Procedure: The following assay procedure, which is a competition radioligand binding assay, was carried out to determine the activity of the foregoing compounds as αvβ3 antagonists. The competitive assay procedure described in Kumar, et. al., "Biochemical Characterization Of The Binding Of Echistatin To Integrin αvβ3 Receptor", Journal Of Pharmacology And Experimental Therapeutics, Vol. 283, No. 2, pp. 843-853 (1997) was employed. Thus, binding of ^125I-echistatin (radiolabeled by the chloramine-T method to a specific activity of 2000 Ci/mmol (Amersham, Chicago, Il.)) to αvβ3 receptor (purified from human placenta), both prepared as described in Kumar, et al., was competed by the compounds prepared in the foregoing examples. Purified αvβ3 receptor was coated onto Microlite-2 plates at a concentration of 50 ng/well. ^125I-echistatin was added to the wells to a final concentration of 0.05 nM in binding buffer (50 µl/well) in the presence of the competing test compound. The competing test compounds were employed at serially diluted concentrations ranging from 1 pM to 100 nM. After a 3 hour incubation at room temperature, the wells were washed, and radioactivity, reflecting binding by ^125 I-echistatin to αvβ3 receptors, was determined with Top Count (Packard). Each data point is an average of values from triplicate wells.
Specific binding of ^125I-echistatin was calculated as the difference between the amount of ^125I-echistatin bound in the absence (total binding) and the amount of ^125I-echistatin bound in the presence of a 200-fold molar excess of unlabeled echistatin (nonspecific binding). The efficacy of the test compounds for inhibiting specific binding of ^125I-echistatin to αvβ3 receptors was determined by plotting a graph of specific binding (y-axis) as a function of test compound concentration (x-axis). The concentration of test compound required to inhibit 50% of the specific binding (IC50) was determined from the plot. The IC50 may be directly converted mathematically to Ki, which is a measure of the receptor binding affinity of the compounds under the defined assay conditions.

purified αllbβ3 receptor = purified αllbβ3 receptor (Homo sapiens, UniProt P05106+P08514); assay: similar competitive binding assay with 125I-echistatin on αllbβ3 receptor, used for the specificity index; conditions: specificity index IC50 αllbβ3/ IC50 αvβ3; for Specificity α11bβ3 / αvβ3: Table 13
Procedure: To measure the relative affinity of the test compounds for αvβ3 receptors versus affinity for αllbβ3 receptors, similar competitive assays were carried out using purified αllbβ3 receptor and ^125I-echistatin (iodinated using the lactoperoxidase method). The specificity index, which is a measure of the relative binding affinity for αvβ3, versus αllbβ3, may be determined by dividing the IC50 value for αllbβ3 by the IC50 value for αvβ3.

SMILES | IC50 ([1]; Table 10) [nM] | SPECIFICITY αIIbβ3 / αvβ3 (purified αllbβ3 receptor; Table 10) | other results
O=C(NC[C@H](NS(=O)(=O)c1ccccc1)C(=O)O)c1ccc(CN(Cc2nc3ccccc3[nH]2)C(=O)NC2CCCCC2)cc1 [Example 5-81] | – | – | IC50 ([1]; Table 16): 8.2 nM; Specificity αllbβ3 / αvβ3 (purified αllbβ3 receptor; Table 16): 8.0
CCOC(=O)N(Cc1ccc(C(=O)NC[C@H](NC(=O)OCc2ccccc2)C(=O)O)cc1)Cc1nc2ccccc2[nH]1 [Example 5-20] | 7.2 | 15 | –
COCC(=O)N(CCc1nc2ccccc2[nH]1)Cc1ccc(C(=O)NCC(NC(=O)OCc2ccccc2)C(=O)O)cc1 (stereo not drawn) [Example 5-72] | – | – | IC50 ([1]; Table 14): 559 nM; Specificity αIIβ3 / αvβ3 (purified αllbβ3 receptor; Table 14): 0.5
CCCCOC(=O)N[C@@H](CNC(=O)c1ccc(CN(Cc2nc3ccccc3[nH]2)C(=O)Nc2ccc(C(=O)OCC)cc2)cc1)C(=O)O [Example 5-91] | – | – | IC50 ([1]; Table 16): 2.8 nM; Specificity αllbβ3 / αvβ3 (purified αllbβ3 receptor; Table 16): 1183
COCC(=O)N(Cc1ccc(C(=O)NC[C@H](NC(=O)OCc2ccccc2)C(=O)O)cc1)C(C)c1nc2ccccc2[nH]1 (stereo partly drawn) [Example 5-77] | – | – | IC50 ([1]; Table 15): 49 nM; SPECIFICITY αIIbβ3 / αvβ3 (purified αllbβ3 receptor; Table 15): 12.4
COCC(=O)N(Cc1ccc(C(=O)NC[C@H](NS(=O)(=O)c2ccccc2)C(=O)O)cc1)Cc1nc2ccccc2[nH]1 [Example 5-80] | – | – | IC50 ([1]; Table 16): 4.4 nM; Specificity αllbβ3 / αvβ3 (purified αllbβ3 receptor; Table 16): 11
CC(=O)N(Cc1ccc(C(=O)NC[C@H](NC(=O)OC(C)(C)C)C(=O)O)cc1)Cc1nc2ccccc2[nH]1 [Example 5-61] | – | – | IC50 ([1]; Table 12): 17 nM; Specificity αllbβ3 / αvβ3 (purified αllbβ3 receptor; Table 12): 324
O=C(N[C@@H](CNC(=O)c1ccc(CN(Cc2nc3ccccc3[nH]2)C(=O)COc2ccccc2)cc1)C(=O)O)OCc1ccccc1 [Example 5-19] | 8.9 | 34 | –
CCOC(=O)[C@H](CCSC)NC(=O)N(Cc1ccc(C(=O)NC[C@H](NC(=O)OCc2ccccc2)C(=O)O)cc1)Cc1nc2ccccc2[nH]1 [Example 5-48] | 1 | 2028 | –
CCCCOC(=O)N[C@@H](CNC(=O)c1ccc(CN(Cc2nc3ccccc3[nH]2)C(=O)NCC(=O)OCC)cc1)C(=O)O [Example 5-86, N^3-[4-[(benzimidazol-2-yl)methyl][[(ethoxycarbonylmethyl)amino]-carbonyl]aminomethylbenzoyl]-N^2-(n-butoxycarbonyl)-L-2,3-diaminopropionic acid] | – | – | IC50 ([1]; Table 16): 3.3 nM; Specificity αllbβ3 / αvβ3 (purified αllbβ3 receptor; Table 16): 793
CCNC(=O)N(Cc1ccc(C(=O)NC[C@H](NC(=O)OCc2ccccc2)C(=O)O)cc1)Cc1nc2ccccc2[nH]1 [Example 5-43] | 2.2 | 585 | –
COCCC(=O)N(Cc1ccc(C(=O)NC[C@H](NC(=O)OCc2ccccc2)C(=O)O)cc1)Cc1nc2ccccc2[nH]1 [Example 5-25] | 4.5 | 52 | –
CCOC(=O)[C@H](CC(C)C)NC(=O)N(Cc1ccc(C(=O)NC[C@H](NC(=O)OCc2ccccc2)C(=O)O)cc1)Cc1nc2ccccc2[nH]1 [Example 5-53] | 3.8 | 483 | –
O=C(N[C@@H](CNC(=O)c1ccc(CN(Cc2nc3ccccc3[nH]2)C(=O)NS(=O)(=O)c2ccc(Cl)cc2)cc1)C(=O)O)OCc1ccccc1 [Example 5-44] | 19.6 | 66.3 | –
COCCNC(=S)N(Cc1ccc(C(=O)NC[C@H](NC(=O)OCc2ccccc2)C(=O)O)cc1)Cc1nc2ccccc2[nH]1 [Example 5-56] | 1.6 | 514 | –
CC(=O)N(Cc1ccc(C(=O)NC(CC(=O)O)c2ccccc2)cc1)Cc1nc2ccccc2[nH]1 (stereo not drawn) [Example 5-66] | – | – | IC50 ([1]; Table 13): 9470 nM; Specificity α11bβ3 / αvβ3 (purified αllbβ3 receptor): 0.4
CCOC(=O)CCNC(=O)N(Cc1ccc(C(=O)NC[C@H](NC(=O)OCc2ccccc2)C(=O)O)cc1)Cc1nc2ccccc2[nH]1 [Example 5-54] | 2 | 413 | –

SMILES | IC50 ([1]; Table 10) [nM] | SPECIFICITY αIIbβ3 / αvβ3 (purified αllbβ3 receptor; Table 10) | other results
CC(NCc1ccc(C(=O)NC[C@H](NC(=O)OCc2ccccc2)C(=O)O)cc1)c1nc2ccccc2[nH]1 (stereo partly drawn) [Example 5-75] | – | – | IC50 ([1]; Table 15): 306 nM; SPECIFICITY αIIbβ3 / αvβ3 (purified αllbβ3 receptor; Table 15): 10.2
CN(C)CC(=O)N(Cc1ccc(C(=O)NC[C@H](NC(=O)OCc2ccccc2)C(=O)O)cc1)Cc1nc2ccccc2[nH]1 [Example 5-24] | 5.3 | 14 | –
CC(c1nc2ccccc2[nH]1)N(Cc1ccc(C(=O)NC[C@H](NC(=O)OCc2ccccc2)C(=O)O)cc1)C(=O)CCc1ccccc1 (stereo partly drawn) [Example 5-78] | – | – | IC50 ([1]; Table 15): 21 nM; SPECIFICITY αIIbβ3 / αvβ3 (purified αllbβ3 receptor; Table 15): 33.9
O=C(N[C@@H](CNC(=O)c1ccc(CN(Cc2nc3ccccc3[nH]2)C(=O)Nc2ccccc2)cc1)C(=O)O)OCc1ccccc1 [Example 5-27] | 1.56 | 481 | –
CCOC(=O)[C@@H](NC(=O)N(Cc1ccc(C(=O)NC[C@H](NC(=O)OCc2ccccc2)C(=O)O)cc1)Cc1nc2ccccc2[nH]1)C(C)C [Example 5-51] | 1.1 | 1210 | –
COCC(=O)N(Cc1ccc(C(=O)NC[C@H](NC(=O)OC(C)(C)C)C(=O)O)cc1)Cc1nc2ccccc2[nH]1 [Example 5-62] | – | – | IC50 ([1]; Table 12): 30 nM; Specificity αllbβ3 / αvβ3 (purified αllbβ3 receptor; Table 12): 419
COc1ccc(OC(=O)N(Cc2ccc(C(=O)NC[C@H](NC(=O)OCc3ccccc3)C(=O)O)cc2)Cc2nc3ccccc3[nH]2)cc1 [Example 5-21] | 4.4 | 41 | –
O=C(O)CC(NC(=O)c1ccc(CN(Cc2nc3ccccc3[nH]2)C(=O)CCc2ccccc2)cc1)c1ccccc1 (stereo not drawn) [Example 5-68] | – | – | IC50 ([1]; Table 13): 6630 nM; Specificity α11bβ3 / αvβ3 (purified αllbβ3 receptor): 0.4
CC(C)(C)OC(=O)N[C@@H](CNC(=O)c1ccc(CN(Cc2nc3ccccc3[nH]2)C(=O)CCc2ccccc2)cc1)C(=O)O [Example 5-63] | – | – | IC50 ([1]; Table 12): 20 nM; Specificity αllbβ3 / αvβ3 (purified αllbβ3 receptor; Table 12): 293
O=C(N[C@@H](CNC(=O)c1ccc(CN(Cc2nc3ccccc3[nH]2)C(=O)N2CCOCC2)cc1)C(=O)O)OCc1ccccc1 [Example 5-42] | 1.8 | 39 | –
CN(Cc1ccc(C(=O)NC[C@H](NC(=O)OCc2ccccc2)C(=O)O)cc1)Cc1nc2ccccc2[nH]1 [Example 5-33] | 17 | 128 | –
Cn1c(CN(Cc2ccc(C(=O)NC[C@H](NC(=O)OCc3ccccc3)C(=O)O)cc2)C(=O)NC2CCCCC2)nc2ccccc21 [Example 5-92] | – | – | IC50 ([1]; Table 16): 7.6 nM; Specificity αllbβ3 / αvβ3 (purified αllbβ3 receptor; Table 16): 174
CSCC(=O)N(Cc1ccc(C(=O)NC[C@H](NC(=O)OCc2ccccc2)C(=O)O)cc1)Cc1nc2ccccc2[nH]1 [Example 5-23] | 5.5 | 22 | –
O=C(N[C@@H](CNC(=O)c1ccc(CN(Cc2nc3ccccc3[nH]2)C(=S)NC2CCCCC2)cc1)C(=O)O)OCc1ccccc1 [Example 5-55] | 2.5 | 620 | –
CC(C)(C)OC(=O)N[C@@H](CNC(=O)c1ccc(CN(Cc2nc3ccccc3[nH]2)C(=O)CCC2CCCC2)cc1)C(=O)O [Example 5-64] | – | – | IC50 ([1]; Table 12): 16 nM; Specificity αllbβ3 / αvβ3 (purified αllbβ3 receptor; Table 12): 499
O=C(N[C@@H](CNC(=O)c1ccc(CN(Cc2nc3ccccc3[nH]2)C(=O)CCC2CCCC2)cc1)C(=O)O)OCc1ccccc1 [Example 5-14] | 5.8 | 117 | –
